Values quoted from earlier work as cited in patent US8350024B2, “Sugar derivatives and application of same” (priority 2006, dated 2013).

System: herpes simplex virus type 2
Conditions: conventional drug, comparison value

For `Nc1nc2c(ncn2COCCO)c(=O)[nH]1` [acyclovir], which selection index is on record?
Its selection index is “about 800”.
